# Laboratory results as given in ChEMBL document CHEMBL1127987, “()11-Amino-2,6-dimethyl-1,2,3,4-tetrahydro-6H-quinindolin-1-one, a novel gabaA modulator with potential anxiolytic activity” (Bioorg Med Chem Lett, 1994).
# Tests used:
# [1] = target: GABA-A receptor; anion channel; experiment: Inhibition of [35S]TBPS binding to Gamma-aminobutyric acid A (GABA-A) receptor of rat brain in the presence of 5 uM GABA
# Rattus norvegicus [2] = species: Rattus norvegicus; experiment: Minimum effective peroral dose in Geller-Seifter paradigm; format: functional; details: po, read-out: MED
# Rattus norvegicus [3] = experiment: Punished responding phase in Geller-Seifter test was determined at 2 hr post-dose of 5 mg/Kg p.o.; format: functional
# [4] = target: T1, GABA-A receptor; anion channel (Rattus norvegicus) (UniProt O09028+P15431+P18506+P18508+P19969+P20236+P23574+P23576+P28471+P28473+P30191+P62813+P63079+P63138+Q91ZM7+Q9ES14); details: 0.01 uM
# Description: Inhibition of [35S]TBPS binding to Gamma-aminobutyric acid A (GABA-A) receptor of rat brain in the presence of 5 uM GABA at 0.01 uM
# [5] = target: T1, GABA-A receptor; anion channel (Rattus norvegicus); details: Cerebral cortex, 0.12 uM
# Description: Inhibition of [3H]Flunitrazepam binding to rat cerebral cortex at 0.12 uM
# Rattus norvegicus [6] = experiment: Punished responding phase in Geller-Seifter test was determined at 1 hr post-dose of 5 mg/Kg p.o.; format: functional
# Rattus norvegicus [7] = experiment: Number of animals responding out of those tested (Nr/N) in Geller-Seifter test was determined at 1 hr post-dose of 5 mg/Kg p.o. (Animals tested 8); format: functional
# Rattus norvegicus [8] = experiment: Number of animals responding out of those tested (Nr/N) in Geller-Seifter test was determined at 2 hr post-dose of 5 mg/Kg p.o. (Animals tested 16); format: functional
# Rattus norvegicus [9] = experiment: Punished responding phase in Geller-Seifter test was determined at 1 hr post-dose of 100 mg/Kg p.o.; format: functional
# Rattus norvegicus [10] = experiment: Number of animals responding out of those tested (Nr/N) in Geller-Seifter test was determined at 2 hr post-dose of 20 mg/Kg p.o. (Animals tested 16); format: functional
# Rattus norvegicus [11] = experiment: Punished responding phase in Geller-Seifter test was determined at 1 hr post-dose of 50 mg/Kg p.o.; format: functional
# Rattus norvegicus [12] = experiment: Punished responding phase in Geller-Seifter test was determined at 1 hr post-dose of 10 mg/Kg p.o.; format: functional
# Rattus norvegicus [13] = experiment: Number of animals responding out of those tested (Nr/N) in Geller-Seifter test was determined at 1 hr post-dose of 100 mg/Kg p.o. (Animals tested 16); format: functional
# Rattus norvegicus [14] = experiment: Punished responding phase in Geller-Seifter test was determined at 2 hr post-dose of 20 mg/Kg p.o.; format: functional
# [15] = target: GABA-A receptor; anion channel; experiment: Displacement of [3H]flunitrazepam from rat cerebral cortex; format: tissue-based
# Rattus norvegicus [16] = experiment: Number of animals responding out of those tested (Nr/N) in Geller-Seifter test was determined at 2 hr post-dose of 50 mg/Kg p.o. (Animals tested 16); format: functional
# Rattus norvegicus [17] = experiment: Number of animals responding out of those tested (Nr/N) in Geller-Seifter test was determined at 1 hr post-dose of 50 mg/Kg p.o. (Animals tested 16); format: functional
# Rattus norvegicus [18] = experiment: Punished responding phase in Geller-Seifter test was determined at 2 hr post-dose of 50 mg/Kg p.o.; format: functional
# Rattus norvegicus [19] = experiment: Punished responding phase in Geller-Seifter test was determined at 1 hr post-dose of 20 mg/Kg p.o.; format: functional
# Rattus norvegicus [20] = experiment: Number of animals responding out of those tested (Nr/N) in Geller-Seifter test was determined at 1 hr post-dose of 10 mg/Kg p.o. (Animals tested 15); format: functional
# Rattus norvegicus [21] = experiment: Number of animals responding out of those tested (Nr/N) in Geller-Seifter test was determined at 1 hr post-dose of 5 mg/Kg p.o. (Animals tested 6); format: functional
# Rattus norvegicus [22] = experiment: Number of animals responding out of those tested (Nr/N) in Geller-Seifter test was determined at 1 hr post-dose of 20 mg/Kg p.o. (Animals tested 16); format: functional
# Rattus norvegicus [23] = experiment: Punished responding phase in Geller-Seifter test was determined at 2 hr post-dose of 10 mg/Kg p.o.; format: functional
# Rattus norvegicus [24] = experiment: Number of animals responding out of those tested (Nr/N) in Geller-Seifter test was determined at 1 hr post-dose of 5 mg/Kg p.o. (Animals tested 14); format: functional
# Rattus norvegicus [25] = experiment: Number of animals responding out of those tested (Nr/N) in Geller-Seifter test was determined at 1 hr post-dose of 50 mg/Kg p.o. (Animals tested 6); format: functional
# Rattus norvegicus [26] = experiment: Number of animals responding out of those tested (Nr/N) in Geller-Seifter test was determined at 1 hr post-dose of 20 mg/Kg p.o. (Animals tested 6); format: functional
# Rattus norvegicus [27] = experiment: Number of animals responding out of those tested (Nr/N) in Geller-Seifter test was determined at 2 hr post-dose of 20 mg/Kg p.o. (Animals tested 6); format: functional
# Rattus norvegicus [28] = experiment: Number of animals responding out of those tested (Nr/N) in Geller-Seifter test was determined at 1 hr post-dose of 100 mg/Kg p.o. (Animals tested 6); format: functional
# Rattus norvegicus [29] = experiment: Number of animals responding out of those tested (Nr/N) in Geller-Seifter test was determined at 2 hr post-dose of 100 mg/Kg p.o. (Animals tested 6); format: functional
# Rattus norvegicus [30] = experiment: Number of animals responding out of those tested (Nr/N) in Geller-Seifter test was determined at 1 hr post-dose of 2.5 mg/Kg p.o. (Animals tested 6); format: functional
# Rattus norvegicus [31] = experiment: Punished responding phase in Geller-Seifter test was determined at 2 hr post-dose of 100 mg/Kg p.o.; format: functional
# Rattus norvegicus [32] = experiment: Number of animals responding out of those tested (Nr/N) in Geller-Seifter test was determined at 2 hr post-dose of 50 mg/Kg p.o. (Animals tested 6); format: functional
# Rattus norvegicus [33] = experiment: Punished responding phase in Geller-Seifter test was determined at 1 hr post-dose of 2.5 mg/Kg p.o.; format: functional
# Rattus norvegicus [34] = experiment: Number of animals responding out of those tested (Nr/N) in Geller-Seifter test was determined at 2 hr post-dose of 10 mg/Kg p.o. (Animals tested 14); format: functional
# Rattus norvegicus [35] = experiment: Number of animals responding out of those tested (Nr/N) in Geller-Seifter test was determined at 1 hr post-dose of 10 mg/Kg p.o. (Animals tested 6); format: functional
# [36] = system: GABA-A receptor; anion channel; experiment: Displacement of [3H]flunitrazepam from rat cerebral cortex (Insoluble); format: tissue-based
# Rattus norvegicus [37] = experiment: Number of animals responding out of those tested (Nr/N) in Geller-Seifter test was determined at 2 hr post-dose of 20 mg/Kg p.o. (Animals tested 8); format: functional
smiles,measurement,setting,value
CCC1CCc2nc3c(c(N)c2C1=O)c1ccccc1n3C (centres undefined),IC50,[1]; read-out: IC50,940 nM
same,minimal effective dose,Rattus norvegicus [2],20 mg/kg
CN1C(=O)CN=C(c2ccccc2)c2cc(Cl)ccc21 [DIAZEPAM],Change,Rattus norvegicus [3],38%
same,inhibition,[4],< 50%
same,inhibition,[5],100%
same,Change,Rattus norvegicus [6],57%
same,Nr/N,Rattus norvegicus [7],6
same,minimal effective dose,Rattus norvegicus [2],2.5 mg/kg
same,Nr/N,Rattus norvegicus [8],8
CCOC(=O)c1c(C)nc2c(c1N)c1ccccc1n2C,Change,Rattus norvegicus [9],122%
same,Nr/N,Rattus norvegicus [10],6
same,Change,Rattus norvegicus [11],63%
same,Change,Rattus norvegicus [12],20%
same,Nr/N,Rattus norvegicus [13],14
same,Change,Rattus norvegicus [14],6%
same,IC50,[15],> 100000 nM
same,Nr/N,Rattus norvegicus [16],6
same,IC50,[1]; read-out: IC50,2000 nM
same,Nr/N,Rattus norvegicus [17],15
same,Change,Rattus norvegicus [18],4%
same,Change,Rattus norvegicus [19],22%
same,Nr/N,Rattus norvegicus [20],10
same,Change,Rattus norvegicus [6],2%
same,Nr/N,Rattus norvegicus [21],5
same,minimal effective dose,Rattus norvegicus [2],10 mg/kg
same,Nr/N,Rattus norvegicus [22],12
CC1CCc2nc3c(c(N)c2C1=O)c1ccccc1n3C (centres undefined),Change,Rattus norvegicus [9],137%
same,Change,Rattus norvegicus [11],146%
same,Change,Rattus norvegicus [23],22%
same,Nr/N,Rattus norvegicus [24],8
same,Change,Rattus norvegicus [12],43%
same,Change,Rattus norvegicus [14],36%
same,IC50,[15],> 100000 nM
same,IC50,[1]; read-out: IC50,950 nM
same,Change,Rattus norvegicus [18],62%
same,Change,Rattus norvegicus [19],52%
same,Nr/N,Rattus norvegicus [25],5
same,Change,Rattus norvegicus [6],19%
same,Nr/N,Rattus norvegicus [26],5
same,Nr/N,Rattus norvegicus [27],6
same,Nr/N,Rattus norvegicus [28],6
same,minimal effective dose,Rattus norvegicus [2],5 mg/kg
same,Nr/N,Rattus norvegicus [29],6
same,Nr/N,Rattus norvegicus [30],0
same,Change,Rattus norvegicus [31],141%
same,Nr/N,Rattus norvegicus [32],6
same,Change,Rattus norvegicus [33],0%
same,Nr/N,Rattus norvegicus [34],7
same,Nr/N,Rattus norvegicus [35],5
Cc1nc2c(c(N)c1C(=O)O)c1ccccc1n2C,IC50,[15],> 100000 nM
same,IC50,[1]; read-out: IC50,> 100000 nM
same,minimal effective dose,Rattus norvegicus [2],> 50 mg/kg
Cn1c2ccccc2c2c(N)c3c(nc21)CCOC3=O,IC50,[1],Insoluble
same,minimal effective dose,Rattus norvegicus [2],> 20 mg/kg
same,IC50,[36],Insoluble
CCCC(=O)c1c(C)nc2c(c1N)c1ccccc1n2C,IC50,[1]; read-out: IC50,2300 nM
same,minimal effective dose,Rattus norvegicus [2],20 mg/kg
CCC(=O)c1c(C)nc2c(c1N)c1ccccc1n2C,Change,Rattus norvegicus [14],28%
same,IC50,[15],> 100000 nM
same,IC50,[1]; read-out: IC50,1600 nM
same,Change,Rattus norvegicus [19],41%
same,Nr/N,Rattus norvegicus [26],5
same,minimal effective dose,Rattus norvegicus [2],20 mg/kg
same,Nr/N,Rattus norvegicus [37],5
